Laboratory results published in PMC10584170, “Machine learning-based phenotypic imaging to characterise the targetable biology of Plasmodium falciparum male gametocytes for the development of transmission-blocking antimalarials” (PLOS Pathogens, 2023).
Where two headings read alike, the source gives them in different places.

What was measured:
[1] = test system: P. falciparum male gametocytes; experiment: P. falciparum Dual Gamete Formation Assay (PfDGFA), male readout (exflagellation); assay type: cell-based, Plasmodium falciparum NF54; conditions: for Selectivity Ratio M: HepG2 Tox50 versus male IC50; for IC50: PfDGFA, 24 h incubation with gametocytes before induction, exflagellation readout, read-out: Male IC50; for HitlevelM: number of replicates with >50% inhibition in the male readout
In short: (§1)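 Two sex-specific readouts come from one well: male exflagellation centres recorded by brightfield video right after activation, and female gametes scored by Cy3-anti-Pfs25 fluorescence after 24 h at 28°C.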

[2] = test system: P. falciparum female gametocytes; experiment: P. falciparum Dual Gamete Formation Assay (PfDGFA), female readout (Pfs25-positive female gametes); assay type: cell-based, Plasmodium falciparum NF54; conditions: for Selectivity ratio F: HepG2 Tox50 versus female IC50; for IC50: PfDGFA, 24 h incubation with gametocytes before induction, female gamete readout, read-out: Female IC50; for HitlevelF: number of replicates with >50% inhibition in the female readout
In short: as §1

HepG2 cells = experiment: HepG2 cytotoxicity counter-screen; conditions: cytotoxic activity against HepG2 cells
[3] = Plasmodium falciparum, 2µM, 24h preincubation with gametocytes, average of replicates, read-out: Average inhibition male (%)
[4] = Plasmodium falciparum, 2µM, 24h preincubation with gametocytes, replicate R1, read-out: % inhibition male (individual replicates) R1
[5] = Plasmodium falciparum, 2µM, 24h preincubation with gametocytes, replicate R2, read-out: % inhibition male (individual replicates) R2
[6] = Plasmodium falciparum, 2µM, 24h preincubation with gametocytes, replicate R3, read-out: % inhibition male (individual replicates) R3
[7] = Plasmodium falciparum, 2µM, 24h preincubation with gametocytes, replicate R4, read-out: % inhibition male (individual replicates) R4
[8] = Plasmodium falciparum, 2µM, 24h preincubation with gametocytes, average of replicates, read-out: Average inhibition female (%)
[9] = Plasmodium falciparum, 2µM, 24h preincubation with gametocytes, replicate R1, read-out: % inhibition female (individual replicates) R1
[10] = Plasmodium falciparum, 2µM, 24h preincubation with gametocytes, replicate R2, read-out: % inhibition female (individual replicates) R2
[11] = Plasmodium falciparum, 2µM, 24h preincubation with gametocytes, replicate R3, read-out: % inhibition female (individual replicates) R3
[12] = Plasmodium falciparum, 2µM, 24h preincubation with gametocytes, replicate R4, read-out: % inhibition female (individual replicates) R4
[13] = Plasmodium falciparum, PfDGFA at 2µM, 24h preincubation with gametocytes, average of replicates, read-out: Average inhibition male (%)
[14] = Plasmodium falciparum, PfDGFA at 2µM, 24h preincubation with gametocytes, replicate R1, read-out: % inhibition male (individual replicates) R1
[15] = Plasmodium falciparum, PfDGFA at 2µM, 24h preincubation with gametocytes, replicate R2, read-out: % inhibition male (individual replicates) R2
[16] = Plasmodium falciparum, PfDGFA at 2µM, 24h preincubation with gametocytes, replicate R3, read-out: % inhibition male (individual replicates) R3
[17] = Plasmodium falciparum, PfDGFA at 2µM, 24h preincubation with gametocytes, replicate R4, read-out: % inhibition male (individual replicates) R4
[18] = Plasmodium falciparum, PfDGFA at 2µM, 24h preincubation with gametocytes, average of replicates, read-out: Average inhibition female (%)
[19] = Plasmodium falciparum, PfDGFA at 2µM, 24h preincubation with gametocytes, replicate R1, read-out: % inhibition female (individual replicates) R1
[20] = Plasmodium falciparum, PfDGFA at 2µM, 24h preincubation with gametocytes, replicate R2, read-out: % inhibition female (individual replicates) R2
[21] = Plasmodium falciparum, PfDGFA at 2µM, 24h preincubation with gametocytes, replicate R3, read-out: % inhibition female (individual replicates) R3
[22] = Plasmodium falciparum, PfDGFA at 2µM, 24h preincubation with gametocytes, replicate R4, read-out: % inhibition female (individual replicates) R4
[23] = 2µM, 24h preincubation with gametocytes, average of replicates
[24] = 2µM, 24h preincubation with gametocytes, replicate R1
[25] = 2µM, 24h preincubation with gametocytes, replicate R3
[26] = 2µM, 24h preincubation with gametocytes, replicate R4

Structure (SMILES) | IC50 ([1]; Plasmodium falciparum) [nM] | IC50 ([2]; Plasmodium falciparum) [nM] | Selectivity Ratio M [1] | inhibition at 2 µM [1, 3] [%] | inhibition at 2 µM [1, 4] [%] | inhibition at 2 µM [1, 5] [%] | inhibition at 2 µM [1, 6] [%] | inhibition at 2 µM [1, 7] [%] | Selectivity ratio F [2] | inhibition at 2 µM [2, 8] [%] | inhibition at 2 µM [2, 9] [%] | inhibition at 2 µM [2, 10] [%] | inhibition at 2 µM [2, 11] [%] | inhibition at 2 µM [2, 12] [%] | Tox50 (HepG2 cells) [µM] | inhibition at 2 µM [1, 13] [%] | inhibition at 2 µM [1, 14] [%] | inhibition at 2 µM [1, 15] [%] | inhibition at 2 µM [1, 16] [%] | inhibition at 2 µM [1, 17] [%] | also measured
CN1CCC(NCc2ccc(-c3cnc(NCc4ccccc4)nc3)cc2)CC1.O=C(O)C(F)(F)F [TCMDC-134120] | 960 | 6570 | 11.62 | – | – | – | – | – | 1.69 | – | – | – | – | – | 11.1 | 86.5 | 83.5 | 87.5 | 86.1 | 88.9 | HitlevelM ([1]; 2µM): 4; inhibition at 2 µM [2, 18]: 24.9%; inhibition at 2 µM [2, 19]: 24.7%; inhibition at 2 µM [2, 20]: 16.8%; inhibition at 2 µM [2, 21]: -0.09%; inhibition at 2 µM [2, 22]: 58.4%; HitlevelF ([2]; 2µM): 1
COc1ccc(Nc2ncc(OC)c(Nc3ccccc3C(N)=O)n2)cc1N1CCN(C)CC1.O=CO [TCMDC-134149] | 180 | 7910 | 28.52 | 94.7 | 95.1 | 101 | 85.5 | 97.6 | 0.66 | 13.9 | 17.6 | 16.3 | 5.9 | 15.7 | 5.24 | – | – | – | – | – | –
CN1CCN(c2ccc(Nc3ncc(Cl)c(Nc4cccnc4C(N)=O)n3)cc2)CC1.Cl [TCMDC-134164] | 460 | 5470 | 13.8 | 93.6 | 95.4 | 93.6 | 90.2 | 95.2 | 1.15 | -2.7 | -3.8 | 5.1 | -16.9 | 4.9 | 6.29 | – | – | – | – | – | –
Cc1ccc(C(C(=O)Nc2ccc(N3CCNCC3)c(Cl)c2)c2ccccc2)cc1 (centres unmarked) [TCMDC-134292] | 420 | > 10000 | 27.18 | 93.6 | 96.8 | 85.1 | 98.4 | 94.1 | 1.13 | 61.9 | 54.2 | 48.2 | 79.2 | 66 | 11.32 | – | – | – | – | – | –
COc1c(C2CCN(CCCCNC(=O)c3ccc(-c4ccc(Cl)cc4)c(OCCN(C)C)c3)CC2)ccc2c1CCCC2 [TCMDC-134371] | – | – | 3.17 | – | – | – | – | – | 0.69 | – | – | – | – | – | 5.71 | – | – | – | – | – | Average inhibition male (%) [1, 23]: 98.8%; % inhibition male (individual replicates) R1 [1, 24]: 97.3%; % inhibition male (individual replicates) R3 [1, 25]: 99.5%; % inhibition male (individual replicates) R4 [1, 26]: 100.2%; IC50 [1]: 1800 nM; Average inhibition female (%) [2, 23]: 90.2%; % inhibition female (individual replicates) R1 [2, 24]: 90.8%; % inhibition female (individual replicates) R3 [2, 25]: 96.4%; % inhibition female (individual replicates) R4 [2, 26]: 89.7%; IC50 [2]: 8290 nM
COc1cc2c(cc1S(=O)(=O)c1ccc(COc3ccc(C(F)(F)F)cc3)cc1)CNCC2.Cl [TCMDC-134479] | 1380 | > 10000 | 11.99 | – | – | – | – | – | 1.66 | – | – | – | – | – | 16.6 | 89.2 | 89.3 | 88 | 76 | 104 | HitlevelM ([1]; 2µM): 4; inhibition at 2 µM [2, 18]: 10%; inhibition at 2 µM [2, 19]: 16.9%; inhibition at 2 µM [2, 20]: 9.1%; inhibition at 2 µM [2, 21]: -0.43%; inhibition at 2 µM [2, 22]: 14.6%; HitlevelF ([2]; 2µM): 0

Now from value to compound, other results behind:

IC50 ([1]; Plasmodium falciparum) [nM] | IC50 ([2]; Plasmodium falciparum) [nM] | Structure (SMILES) | Selectivity Ratio M [1] | inhibition at 2 µM [1, 3] [%] | inhibition at 2 µM [1, 4] [%] | inhibition at 2 µM [1, 5] [%] | inhibition at 2 µM [1, 6] [%] | inhibition at 2 µM [1, 7] [%] | Selectivity ratio F [2] | inhibition at 2 µM [2, 8] [%] | inhibition at 2 µM [2, 9] [%] | inhibition at 2 µM [2, 10] [%] | inhibition at 2 µM [2, 11] [%] | inhibition at 2 µM [2, 12] [%] | Tox50 (HepG2 cells) [µM] | inhibition at 2 µM [1, 13] [%] | inhibition at 2 µM [1, 14] [%] | inhibition at 2 µM [1, 15] [%] | inhibition at 2 µM [1, 16] [%] | inhibition at 2 µM [1, 17] [%] | also measured
40 | 7400 | Cc1cc(Nc2ncc(C#N)c(Nc3ccccc3C(N)=O)n2)ccc1N1CCN(C)CC1.Cl [TCMDC-134115] | 28.49 | 96.2 | 97.3 | 97.1 | 88.6 | 102 | 0.14 | -14.3 | -7.3 | -13.1 | -26.9 | -10 | 1.03 | – | – | – | – | – | –
30 | 9170 | CN1CCN(c2ccc(Nc3ncc(C#N)c(Nc4ccccc4C(N)=O)n3)cc2)CC1.Cl [TCMDC-134116] | 137.11 | 100 | 98.7 | 101 | 97.3 | 104 | 0.4 | -1.7 | 7.5 | 3 | -11.3 | -6.1 | 3.71 | – | – | – | – | – | –
100 | > 10000 | COc1ccc(Nc2ncc(C#N)c(Nc3ccccc3C(N)=O)n2)cc1N1CCN(C)CC1.Cl [TCMDC-134117] | 100.74 | 97.4 | 98.2 | 100 | 93.5 | 98 | 0.96 | -4.3 | -4.1 | -6.5 | -13.1 | 6.5 | 9.58 | – | – | – | – | – | –
250 | > 10000 | CNC(=O)c1ccccc1Nc1nc(Nc2ccc(N3CCN(C)CC3)nc2)ncc1C.Cl [TCMDC-134123] | 14.02 | 96.1 | 93.9 | 95.8 | – | 98.7 | 0.34 | 0.025 | -2.2 | -9.9 | 9.7 | 2.5 | 3.44 | – | – | – | – | – | –
180 | > 10000 | CNC(=O)c1ccccc1Nc1nc(Nc2ccc(N3CCOCC3)cc2)ncc1Cl.Cl [TCMDC-134144] | 4.53 | – | – | – | – | – | 0.08 | – | – | – | – | – | 0.82 | 88.6 | 93.6 | 91.9 | 82.6 | 86.2 | HitlevelM ([1]; 2µM): 4; inhibition at 2 µM [2, 18]: 8.6%; inhibition at 2 µM [2, 19]: 12.4%; inhibition at 2 µM [2, 20]: 10.5%; inhibition at 2 µM [2, 21]: 10.7%; inhibition at 2 µM [2, 22]: 0.76%; HitlevelF ([2]; 2µM): 0
400 | > 10000 | COc1ccc(Nc2ncc(Cl)c(Nc3cccnc3C(N)=O)n2)cc1N1CCN(C)CC1.Cl [TCMDC-134163] | 7.51 | – | – | – | – | – | 0.3 | – | – | – | – | – | 2.98 | 79.9 | 77.1 | 88.9 | 73.4 | 80.2 | HitlevelM ([1]; 2µM): 4; inhibition at 2 µM [2, 18]: -4.7%; inhibition at 2 µM [2, 19]: 1.7%; inhibition at 2 µM [2, 20]: -23.4%; inhibition at 2 µM [2, 21]: -4.2%; inhibition at 2 µM [2, 22]: 7%; HitlevelF ([2]; 2µM): 0
